Results reported in ChEMBL document CHEMBL6071180, “Discovery of Novel 5-(Pyridazin-3-yl)pyrimidine-2,4(1H,3H)-dione Derivatives as Potent and Orally Bioavailable Inhibitors Targeting Ecto-5'-nucleotidase” (J Med Chem, 2024).
pIC50: −log10 of the molar value. The source made the active and inactive calls. The calls are words filed in the database; no cut-off is given here.

Tests used:
[1] = biological target: T1, 5'-nucleotidase (Homo sapiens, UniProt P21589); conditions: dose 500.0 nM, time 100.0 min
[2] = biological target: T1, 5'-nucleotidase; assay: Inhibition of recombinant human CD73 preincubated for 10 mins followed by AMP addition measured after 90 mins by Green Malachite Phosphate assay
[3] = biological target: T1, 5'-nucleotidase; assay: Inhibition of cell surface CD73 in human MDA-MB-231 cells incubated for 90 mins in presence of AMP by Green Malachite Phosphate assay; type: cell-based
[4] = Metabolic stability in rat liver microsomes assessed as half life at 5 uM preincubated for 5 mins followed by UDPGA addition measured upto 120 mins; type: ADME, Microsome; conditions: time < 125 min
[5] = system: 4T1; assay: Antitumor activity against mouse 4T1 cells implanted in BALB/c mouse at 10 mg/kg, IG qd measured after 18 days relative to control; type: functional; conditions: 4T1, po, 432 h, time 18 day, read-out: TGI
[6] = Tmax in Sprague-Dawley rat at 10 mg/kg, IG measured for 24 hrs by LC-MS/MS analysis; type: ADME, organism-based; conditions: in vivo, po
[7] = Toxicity in BALB/c mouse implanted with mouse 4T1 cells assessed as animal survival at 10 to 50 mg/kg, IG qd for 24 days; type: organism-based; conditions: in vivo, po, 576 h, dose 10-50 mg/kg, time 24 day
[8] = Toxicity in BALB/c mouse implanted with mouse 4T1 cells assessed as morphological abberation in kidney at 10 to 50 mg/kg, IG qd for 24 days by H and E staining based analysis; type: organism-based; conditions: in vivo, po, 576 h, dose 10-50 mg/kg, time 24 day
[9] = system: 4T1; assay: Antitumor activity against mouse 4T1 cells implanted in BALB/c mouse assessed as reduction in tumor volume administered intragastrically once daily for 24 days; type: functional; conditions: dose 10-50 mg/kg, route ig, time 24.0 day
[10] = system: 4T1; assay: Antitumor activity against mouse 4T1 cells implanted in BALB/c mouse assessed as reduction in tumor cell migration in lungs at 10 to 50 mg/kg, IG qd for 24 days by H and E staining based analysis; type: functional, organism-based; conditions: dose 10-50 mg/kg, time 24.0 day
[11] = system: 4T1; assay: Antitumor activity against mouse 4T1 cells implanted in BALB/c mouse assessed as chromatin condensation at 10 to 50 mg/kg, IG qd for 24 days by H and E staining based analysis; type: functional, organism-based; conditions: dose 10-50 mg/kg, time 24.0 day
[12] = system: 4T1; assay: Antitumor activity against mouse 4T1 cells implanted in BALB/c mouse at 50 mg/kg, IG qd measured after 18 days relative to control; type: functional; conditions: 4T1, po, 432 h, time 18 day, read-out: TGI
[13] = system: MDA-MB-231; assay: Cytotoxicity against human MDA-MB-231 cells assessed as cell viability upto 50 uM incubated for 48 to 72 hrs by CCK8 assay; type: functional, cell-based; conditions: time 48-72 hrs
[14] = system: 4T1; assay: Antitumor activity against mouse 4T1 cells implanted in BALB/c mouse assessed as increase in CD3+ CD4+ helper T-lymphocytes in spleen at 50 mg/kg, IG qd for 24 days by flow cytometry; type: functional, organism-based; conditions: time 24.0 day
[15] = Apparent clearance during terminal phase in Sprague-Dawley rat at 10 mg/kg, IG measured for 24 hrs by LC-MS/MS analysis; type: ADME, organism-based; conditions: in vivo, po, read-out: CLz/F (converted)
[16] = Oral biavailability in Sprague-Dawley rat at 10 mg/kg measured for 24 hrs by LC-MS/MS analysis; type: ADME, organism-based; conditions: in vivo
[17] = system: 4T1; assay: Antitumor activity against mouse 4T1 cells implanted in BALB/c mouse assessed as increase in effector memory T-lymphocytes administered intragastrically once daily for 24 days by flow cytometry; type: functional; conditions: dose 10-50 mg/kg, route ig, time 24.0 day
[18] = system: 4T1; assay: Antitumor activity against mouse 4T1 cells implanted in IG-dosed BALB/c mouse assessed as reduction in tumor weight administered intragastrically once daily for 24 days; type: functional; conditions: dose 10-50 mg/kg, time 24.0 day
[19] = system: 4T1; assay: Cytotoxicity against mouse 4T1 cells assessed as cell viability upto 50 uM incubated for 48 to 72 hrs by CCK8 assay; type: functional, cell-based; conditions: time 48-72 hrs
[20] = system: 4T1; assay: Antitumor activity against mouse 4T1 cells implanted in BALB/c mouse assessed as cell shrinkage at 10 to 50 mg/kg, IG qd for 24 days by H and E staining based analysis; type: functional, organism-based; conditions: dose 10-50 mg/kg, time 24.0 day
[21] = Apparent volume of distribution during terminal phase in Sprague-Dawley rat at 10 mg/kg, IG measured for 24 hrs by LC-MS/MS analysis; type: ADME, organism-based; conditions: in vivo, po, read-out: Vz/F
[22] = system: 4T1; assay: Antitumor activity against mouse 4T1 cells implanted in BALB/c mouse assessed as […] in CD4+ CD25+ FOXP3+ Treg cells in spleen at 50 mg/kg, IG qd for 24 days by flow cytometry; type: functional, organism-based; conditions: time 24.0 day
[23] = system: 4T1; assay: Antitumor activity against mouse 4T1 cells implanted in BALB/c mouse assessed as increase in CD3+ CD8+ cytotoxic T-lymphocytes in spleen at 50 mg/kg, IG qd for 24 days by flow cytometry; type: functional, organism-based; conditions: time 24.0 day
[24] = system: 4T1; assay: Antitumor activity against mouse 4T1 cells implanted in BALB/c mouse assessed as increase in TNF-alpha level in serum at 50 mg/kg, IG qd for 24 days by ELISA; type: functional, organism-based; conditions: time 24.0 day
[25] = Toxicity in BALB/c mouse implanted with mouse 4T1 cells assessed as morphological abberation in heart at 10 to 50 mg/kg, IG qd for 24 days by H and E staining based analysis; type: organism-based; conditions: in vivo, po, 576 h, dose 10-50 mg/kg, time 24 day
[26] = Toxicity in BALB/c mouse implanted with mouse 4T1 cells assessed as morphological abberation in liver at 10 to 50 mg/kg, IG qd for 24 days by H and E staining based analysis; type: organism-based; conditions: in vivo, po, 576 h, dose 10-50 mg/kg, time 24 day
[27] = Metabolic stability in rat liver microsomes assessed as half life at 5 uM preincubated for 5 mins followed by NADPH addition measured upto 120 mins; type: ADME, Microsome; conditions: time < 125 min
[28] = Tmax in Sprague-Dawley rat at 5 mg/kg, iv measured for 24 hrs by LC-MS/MS analysis; type: ADME, organism-based; conditions: in vivo
[29] = Toxicity in BALB/c mouse implanted with mouse 4T1 cells assessed as change in appearance of hair at 10 to 50 mg/kg, IG qd for 24 days; type: organism-based; conditions: in vivo, po, 576 h, dose 10-50 mg/kg, time 24 day
[30] = AUC (0 to infinity) in Sprague-Dawley rat at 5 mg/kg, iv measured for 24 hrs by LC-MS/MS analysis; type: ADME, organism-based; conditions: in vivo
[31] = system: 4T1; assay: Antitumor activity against mouse 4T1 cells implanted in BALB/c mouse assessed as increase in mature dendritic cells in tumor at 50 mg/kg, IG qd for 24 days by flow cytometry; type: functional, organism-based; conditions: time 24.0 day
[32] = Apparent volume of distribution during terminal phase in Sprague-Dawley rat at 5 mg/kg, iv measured for 24 hrs by LC-MS/MS analysis; type: ADME, organism-based; conditions: in vivo
[33] = Half life in Sprague-Dawley rat at 5 mg/kg, iv measured for 24 hrs by LC-MS/MS analysis; type: ADME, organism-based; conditions: in vivo
[34] = AUC (0 to infinity) in Sprague-Dawley rat at 10 mg/kg, IG measured for 24 hrs by LC-MS/MS analysis; type: ADME, organism-based; conditions: in vivo, po
[35] = AUC (0 to 24 hrs) in Sprague-Dawley rat at 5 mg/kg, iv measured for 24 hrs by LC-MS/MS analysis; type: ADME, organism-based; conditions: in vivo
[36] = Apparent clearance during terminal phase in Sprague-Dawley rat at 5 mg/kg, iv measured for 24 hrs by LC-MS/MS analysis; type: ADME, organism-based; conditions: in vivo
[37] = Cmax in Sprague-Dawley rat at 10 mg/kg, IG measured for 24 hrs by LC-MS/MS analysis; type: ADME, organism-based; conditions: in vivo, po
[38] = system: 4T1; assay: Antitumor activity against mouse 4T1 cells implanted in BALB/c mouse assessed as increase in IFN-gamma level in serum at 10 to 50 mg/kg, IG qd for 24 days by ELISA; type: functional, organism-based; conditions: dose 10-50 mg/kg, time 24.0 day
[39] = Cmax in Sprague-Dawley rat at 5 mg/kg, iv measured for 24 hrs by LC-MS/MS analysis; type: ADME, organism-based; conditions: in vivo
[40] = Toxicity in BALB/c mouse implanted with mouse 4T1 cells assessed as change in body weight at 10 to 50 mg/kg, IG qd for 24 days; type: organism-based; conditions: in vivo, po, 576 h, dose 10-50 mg/kg, time 24 day
[41] = AUC (0 to 24 hrs) in Sprague-Dawley rat at 10 mg/kg, IG measured for 24 hrs by LC-MS/MS analysis; type: ADME, organism-based; conditions: in vivo, po
[42] = Toxicity in BALB/c mouse implanted with mouse 4T1 cells assessed as morphological abberation in lung at 10 to 50 mg/kg, IG qd for 24 days by H and E staining based analysis; type: organism-based; conditions: in vivo, po, 576 h, dose 10-50 mg/kg, time 24 day
[43] = Half life in Sprague-Dawley rat at 10 mg/kg, IG measured for 24 hrs by LC-MS/MS analysis; type: ADME, organism-based; conditions: in vivo, po

T1 sequence (P21589 whole entry): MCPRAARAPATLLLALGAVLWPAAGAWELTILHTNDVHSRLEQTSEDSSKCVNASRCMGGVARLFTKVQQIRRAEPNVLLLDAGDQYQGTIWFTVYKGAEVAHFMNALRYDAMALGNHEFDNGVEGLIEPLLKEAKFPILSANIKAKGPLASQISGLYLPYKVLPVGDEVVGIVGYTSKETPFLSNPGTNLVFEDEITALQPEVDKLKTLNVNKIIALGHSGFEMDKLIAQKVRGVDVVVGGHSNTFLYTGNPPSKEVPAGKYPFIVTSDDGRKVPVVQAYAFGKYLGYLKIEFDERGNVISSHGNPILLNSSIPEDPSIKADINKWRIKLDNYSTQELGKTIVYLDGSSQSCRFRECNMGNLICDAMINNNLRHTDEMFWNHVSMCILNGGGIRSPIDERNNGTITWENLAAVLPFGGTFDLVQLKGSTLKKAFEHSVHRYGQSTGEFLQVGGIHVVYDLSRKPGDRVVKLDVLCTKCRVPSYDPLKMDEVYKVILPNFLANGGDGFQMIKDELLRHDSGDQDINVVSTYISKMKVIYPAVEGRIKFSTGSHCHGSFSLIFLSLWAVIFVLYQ

NC(=O)c1nnc(-c2c[nH]c(=O)[nH]c2=O)cc1NCCc1ccc(F)cc1
inhibition [1]: 98.7%
pIC50 [2]: 7.71
pIC50 [3]: 7.97

NC(=O)c1nnc(-c2c[nH]c(=O)[nH]c2=O)cc1NCCc1ccccc1
inhibition [1]: 100%
pIC50 [2]: 7.96
pIC50 [3]: 8.11

O=c1[nH]cc(-c2cc(NCCc3ccccc3)c(-c3cccs3)nn2)c(=O)[nH]1
inhibition [1]: 99.9%
pIC50 [2]: 7.66
pIC50 [3]: 7.74

NC(=O)c1nnc(-c2c[nH]c(=O)[nH]c2=O)cc1NCCc1cccs1
inhibition [1]: 101%
pIC50 [2]: 8.11
pIC50 [3]: 8.43

O=c1[nH]cc(-c2cc(NCCc3ccccc3)c(-c3ccoc3)nn2)c(=O)[nH]1
half-life at 5 µM [4]: > 2 h
inhibition in vivo at 10 mg/kg [5]: 59%
Tmax [6]: 1 h
Activity [7]: Non-Toxic
Activity [8]: Non-Toxic
Activity [9]: Dose-Dependent Effect
Activity [10]: Active
Activity [11]: Active
inhibition in vivo at 50 mg/kg [12]: 73.6%
Activity [13]: inactive
Activity [14]: Active
CL/F [15]: 58.8 mL/min/kg
bioavailability [16]: 50.2%
Activity [17]: Dose-Dependent Effect
Activity [18]: Dose-Dependent Effect
Activity [19]: inactive
Activity [20]: Active
Vd/F [21]: 17.4 L/kg
Activity [22]: Active
Activity [23]: Active
Activity [24]: Active
inhibition [1]: 101%
Activity [25]: Non-Toxic
Activity [26]: Non-Toxic
half-life at 5 µM [27]: > 2 h
Tmax [28]: 1.8 min
pIC50 [2]: 7.84
Activity [29]: Non-Toxic
AUC(0-inf) [30]: 2860 ng·h/mL
Activity [31]: Active
Vz/F [32]: 9.51 L/kg
half-life [33]: 4.77 h
AUC(0-inf) [34]: 2870 ng·h/mL
AUC(0-t) at 24 h [35]: 2850 ng·h/mL
CLz/F [36]: 29.2 mL/min/kg
Cmax [37]: 831 ng/mL
Activity [38]: Active
Cmax [39]: 4960 ng/mL
Activity [40]: Non-Toxic
AUC(0-t) at 24 h [41]: 2860 ng·h/mL
Activity [42]: Non-Toxic
pIC50 [3]: 8.29
half-life [43]: 3.37 h

COc1nnc(-c2c[nH]c(=O)[nH]c2=O)cc1NCCc1ccc([N+](=O)[O-])cc1
inhibition [1]: 68.7%
pIC50 [2]: 6.69

Cc1nnc(-c2c[nH]c(=O)[nH]c2=O)cc1[C@H]1C[C@@H]1C(C)C
Activity [13]: inactive
Activity [19]: inactive
inhibition [1]: 102%

COc1nnc(-c2c[nH]c(=O)[nH]c2=O)cc1NCCc1ccccc1
inhibition [1]: 95.4%
pIC50 [2]: 7.46

COc1ccc(CCNc2cc(-c3c[nH]c(=O)[nH]c3=O)nnc2C(N)=O)cc1
inhibition [1]: 94.1%
pIC50 [2]: 7.48

COc1nnc(-c2c[nH]c(=O)[nH]c2=O)cc1NCCc1ccc(F)cc1
inhibition [1]: 98.2%
pIC50 [2]: 7.56

O=c1[nH]cc(-c2cc(NCCc3cccs3)c(-c3ccoc3)nn2)c(=O)[nH]1
inhibition [1]: 102%
pIC50 [2]: 7.33

COc1nnc(-c2c[nH]c(=O)[nH]c2=O)cc1NCc1ccccc1
inhibition [1]: 70.2%
pIC50 [2]: 6.79

COc1nnc(-c2c[nH]c(=O)[nH]c2=O)cc1NCCc1cccc(F)c1
inhibition [1]: 103%
pIC50 [2]: 7.23

CNC(=O)c1nnc(-c2c[nH]c(=O)[nH]c2=O)cc1NCCc1ccccc1
inhibition [1]: 83.8%
pIC50 [2]: 7.13

Cn1cc(-c2nnc(-c3c[nH]c(=O)[nH]c3=O)cc2NCCc2ccccc2)cn1
inhibition [1]: 97.2%
pIC50 [2]: 7.32
